Entries after “also recorded” stand apart in the source; their conditions may differ.
Columns and labels:
[1] = test system: MDA-MB-231; experiment: 72 hr viability by CTG, breast cancer cell line; type: cell-based
Protocol: (§1) Breast cancer is a heterogeneous disease historically broken down into 4 subtypes. Various compounds were tested for their effects in cell viability assays using various breast cancer cell lines. Cellular viability was assessed using the CellTiter-Glo® Luminescent Cell Viability Assay (Promega, Madison, Wis., USA) according to the manufacturer's protocol. KRAS mutant NSCLC cell lines were seeded into 96-well plates based on optimal growth rates determined empirically for each line. Twenty-four hours after plating, cells were dosed with graded concentrations of ganetespib for 72 h. CellTiter-Glo® was added (50% v/v) to the cells, and the plates incubated for 10 min prior to luminescent detection in a SpectraMax® Plus 384 microplate reader (Molecular Devices, Sunnyvale, Calif., USA). Data were normalized to percent of control and IC50 values used to determine the sensitivity of each line. For the comparative analysis study with MEK and PI3K/mTOR inhibitors, A549, H2009, Calu-1, and H358 cells were treated with graded concentrations of ganetespib, AZD6244, or BEZ235 for 72 h and cell viability measured as above.
(§2) Breast cancer, cell lines, marker status, and IC50 in response to ganetespib at 72 hr (viability by CTG).
Basal breast cancer is a subtype believed to be more stem like and less differentiated than luminal breast cancer, and therefore more aggressive with limited treatment options. […]

[2] = test system: human KRAS mutant NSCLC tumor xenografts; experiment: KRAS mutant NSCLC tumor xenografts in vivo; parameters: species or system mice
Text: Female immunodeficient CD-1 (nude) mice (Charles River Laboratories, Wilmington, Mass.) were maintained in a pathogen-free environment, and all in vivo procedures were approved by the Synta Pharmaceuticals Corp. Institutional Animal Care and Use Committee. A549 NSCLC cells (7.5×10^6) were subcutaneously implanted into the animals. Mice bearing established tumors (100-200 mm^3) were randomized into treatment groups of 8 and i.v. dosed via the tail vein with either vehicle, ganetespib formulated in 10/18 DRD (10% DMSO, 18% Cremophor RH 40, 3.6% dextrose, 68.4% water) or p.o. dosed with BEZ235 formulated in PEG300/NMP (90% PEG300, 10% N-Methylpyrrolidone). Animals were treated with ganetespib at 50 mg/kg weekly or BEZ235 at 10 mg/kg 5 times a week, either alone or in combination. Tumor growth inhibition was determined as described previously. See Proia et al, PLoS One. 2011; 6(4):e18552.

[3] = test system: VEGF secretion; experiment: VEGF ELISA of conditioned medium of pancreatic cancer cell lines; type: cell-based
Protocol: VEGF concentration in the conditioned medium (from control and treated cells) was determined using a commercial Human VEGF Quantikine ELISA kit (R&D systems, Minneapolis, Minn.) as per manufacturer's instructions.

[4] = test system: advanced GIST; experiment: Phase 2 study in gastrointestinal stromal tumors (GIST); type: in vivo, human
Protocol: Patients with advanced (e.g., metastatic or unresectable) GIST following failure of prior therapy, e.g., imatinib or sunitinib, received ganetespib (200 mg/m^2) as a 1 hour IV infusion once per week for 3 weeks of a 28 day cycle. GIST status was assessed at 8 weeks per RECIST, until progression. […] Hsp90 client protein levels were analyzed in biopsies pre-therapy and 24-48 h post-treatment with ganetespib in a subset of patients.

[5] = test system: HIF-1α and VEGF; experiment: Western blot of HIF-1α and VEGF in pancreatic cancer cell lines; type: cell-based; conditions: 50 nM, 24 h
Protocol: It's postulated that functional inhibition of Hsp90 by ganetespib can inhibit angiogenesis and growth in vitro and in vivo models of pancreatic cancer. PANC-1 and HPAC cell lines were treated with vehicle or G (50 nM) for 24 h and lysates were analyzed by Western blot. Egg CAM and matrigel plug assays were performed to quantify the effects of ganetespib on angiogenesis. Efficacy of ganetespib (100 mg/kg) was assessed in mice bearing HPAC and ASPC-1 xenograft.
Primary antibodies specific to Hsp90, HIF-1α, VEGF, Actin and HRP conjugated secondary antibodies (Santa Cruz Biotechnology, California and Cell Signaling Technology, USA) were used for Western blot. Ganetespib was provided by Synta Pharmaceuticals, Lexington, Mass. and Matrigel was purchased from BD Biosciences.
Cells were harvested at the end of treatment and lysed in the RIPA protein extraction buffer (Sigma-Aldrich, Saint Louis, Mo., USA) containing the protease inhibitor cocktail. Equal amounts of protein fractions of lysates were resolved over SDS-PAGE and transferred on to PVDF membrane. Membranes were incubated with primary antibodies followed by HRP-conjugated secondary antibodies. Bound antibodies were visualized using enhanced chemiluminescence. To confirm equal loading, membranes were verified and re-probed with an antibody specific for the housekeeping gene, anti-β-actin.

[6] = test system: SK-BR-3; experiment: 72 hr viability by CTG, breast cancer cell line; type: cell-based; conditions: Homo sapiens, SK-BR-3, Luminal, HER2+
Protocol: as §1, §2

[7] = test system: MCF7; experiment: 72 hr viability by CTG, breast cancer cell line; type: cell-based; conditions: Homo sapiens, MCF7, Luminal, ER+ PR+
Protocol: as §1, §2

[8] = test system: EGFR and other client proteins; experiment: Western blot of Hsp90 client proteins in Detroit 562 cells, 24 hr; type: cell-based; conditions: Detroit 562, 24 hr
Text: Head and neck (H/N) cancer refers to a group of biologically similar cancers originating from the upper autodigestive tract. First line therapies include EGFR inhibitors and platins. Modulation of EGFR and other client proteins by ganetespib was investigated in Detroit 562 H/N cancer cells.

[9] = test system: Hsp90 client proteins; experiment: Western blot of Hsp90 client proteins in AGS gastric cancer cells; type: cell-based
Protocol: Ganetespib was also evaluated for its effects on Hsp90 client proteins in AGS gastric cancer cells by western blot. […] Similar to the observation in melanoma cells, exposure to ganetespib […] BRAF expression.

[10] = test system: ECC12; experiment: 72 hr viability by Syto60, gastric cell line; type: cell-based; conditions: Homo sapiens, Syto60 (lower), read-out: ganetespib IC50
[11] = test system: AGS (wt-p53 and mut-KRAS); experiment: 72 hr viability by CTG, gastric cancer cells; type: cell-based; conditions: viability by CTG (upper)
Protocol: (§3) Many of the oncoproteins associated with gastric cancer and Hsp90 client proteins including HER2, MET, RAS and the FGFR family. Ganetespib was evaluated for its effect on the growth of AGS (wt-p53 and mut-KRAS) and MKN45 (wt-p53, wt-KRAS, MET amplified) gastric cancer cells.

[12] = test system: MKN45 (wt-p53, wt-KRAS, MET amplified); experiment: 72 hr viability by CTG, gastric cancer cells; type: cell-based; conditions: Homo sapiens, MKN-45, viability by CTG (upper)
Protocol: as §3

SMILES: CC(C)c1cc(-c2nnc(O)n2-c2ccc3c(ccn3C)c2)c(O)cc1O [ganetespib]
- Anticancer activity in the basal line MDA-MB-231 ([1]; 72 hr viability assay, FIG. 1): highly potent, killing all the cells
- IC50 ([1]; Homo sapiens, MDA-MB-231, Basal B, 72 hr, viability by CTG): 24 nM
- Tumor growth inhibition in the combination arm ([2]; ganetespib combined with a PI3K/mTOR inhibitor): considerable improvement in tumor growth inhibition
- Growth of KRAS mutant NSCLC tumor xenografts ([2]; single agent): effectively suppressed the growth
- Tumor regression ([2]; single agent): did not induce tumor regression
- VEGF secretion in the culture medium [3]: reduced VEGF secretion; also recorded: decrease in VEGF secretion; also recorded: down-regulation of VEGF secretion
- Adverse events reported in >20% of patients ([4]; 200 mg/m^2 once per week for 3 weeks of a 28 day cycle, generally NCI CTC grade 1-2): diarrhea, fatigue, nausea, vomiting, increased alkaline phosphatase, headache, insomnia, and abdominal pain
- Evaluable patients with SD ([4]; 4 SD 16 weeks, 8 SD≧8 weeks): 12/23
- Client proteins in paired tumor biopsies ([4]; biopsies from 4 patients, pre-therapy and 24-48 h post-treatment): did not show prolonged inhibition of activated KIT or its downstream pathways
- Tolerability ([4]; once-weekly dosing, no evidence of severe liver, ocular, cardiac or renal toxicity): well-tolerated
- HIF-1α and VEGF protein levels [5]: decreased HIF-1α a and VEGF expression; also recorded: decreased levels
- IC50 [6]: 10 nM
- IC50 [7]: 25 nM
- Modulation of EGFR and other client proteins [8]: depletion of EGFR and JAK2
- Effect on Hsp90 client proteins by western blot [9]: abolished the expression of EGFR, IGF-IR, C-RAF
- IC50 [10]: 12 nM
- IC50 [11]: 1.5 nM
- IC50 [12]: 0.5 nM

— patent US20150253330A1, “PRE-SELECTION OF SUBJECTS FOR THERAPEUTIC TREATMENT WITH AN HSP90 INHIBITOR BASED ON HYPOXIC STATUS” (Synta Pharmaceuticals Corp., priority 2012, published 2015)
